According to patent publication US20220251079A1, “BENZO[B][1,8]NAPHTHYRIDINE ACETIC ACID DERIVATIVES AND METHODS OF USE” (STINGTHERA, INC., priority 2019, published 2022):
pIC50: −log10 of the molar value.

Tests used:
[1] = molecular target: T1, mouse STING protein (139-328) (Mus musculus, UniProt Q3TBT3); assay: Radiometric filtration binding competition assay (MOUSE_FBA_HIS-SUMO-mSWAT); settings: read-out: WT-mSWAT IC50
T1 construct: mouse STING protein (139-328); made in house
T1 sequence (Q3TBT3 139-328): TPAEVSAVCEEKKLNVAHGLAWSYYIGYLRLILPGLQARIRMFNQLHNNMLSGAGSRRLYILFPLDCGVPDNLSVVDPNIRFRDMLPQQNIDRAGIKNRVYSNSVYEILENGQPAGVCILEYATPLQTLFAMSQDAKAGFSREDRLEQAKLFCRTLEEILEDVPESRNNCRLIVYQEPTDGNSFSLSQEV
Experimental: A radiometric filtration binding competition assay was performed to quantify the binding affinity of compounds of the present application for the human or mouse STING protein, or associated HAQ human isoform. The competition format filtration binding assay detects the ability of small molecule compounds from binding to and inhibiting the subsequent binding of a tritiated [H3] […] The resulting dose response was fit by non-linear regression to determine an IC50 value, from which a Ki value for each compound was extrapolated.
Briefly, the recombinant C-terminal ligand binding domain of the human STING protein (140-379) or mouse STING protein (139-328) [0.5 μM] was incubated in the presence of a compound of the present application (8 point, 2 fold dilution starting at 300 μM) for 30 min or under control conditions. […] The resulting complexes were then filtered, dried, and scintillation fluid was added and the remaining radio signal was measured to determine the degree of compound ligand inhibition. This assay format was optimized for both the WT and HAQ isoforms of the human protein and the mouse orthologue protein.
Parameters optimized: • a. Form of protein: 6×HIS-SUMO tag or untagged • b. Concentration of target protein: Minimum concentration that achieved >80 max signal • c. Assay DMSO concentration: 10%-0.1% • d. […]

[2] = molecular target: T2, STING protein (Homo sapiens, UniProt Q86WV6, H232R); assay: Cell based reporter assay of IRF activation (THP1-dual-KI R232, IRF luciferase); settings: THP-1; read-out: THP1-dual-KI R232_IRF(Luciferase)_Activity Maximum measured (%)
T2 construct: host or cells: THP-1 dual reporter cells, TMEM173 modified from HAQ to R232 (THP1-dual-KI R232)
Summary of the method: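 THP-1 monocytes stably carried an ISG54/5×ISRE firefly luciferase IRF reporter, with TMEM173 knock-in H71R A230G Q293R (R232 variant), and there was no PMA pre-activation. Compounds were tested at 8 points, 2-fold, in duplicate from 150 µM. Cell Titer Glo was applied after supernatant removal.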

[3] = molecular target: T3, hSTING-R232 (Homo sapiens, UniProt Q86WV6, H232R); assay: STING Differential Scanning Fluorimetry (DSF) assay, human; type: binding; settings: human STING R232-WT, 5 μM protein
T3 construct: recombinant mouse or human STING protein (aa140-379); 6xHis-SUMO elsewhere) (cleaved yes); made in house
Summary of the method: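 Purified STING C-terminal domain (aa140-379, R232), human or mouse, at 5 μM in 100 mM NaCl, 30 mM HEPES pH 7.5 with SYBR Orange, was heated at 0.5° C./min. Tm came from dF/dT; ΔTm and FC50 were derived from an 11-point 2-fold series from 300 μM, in duplicate.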

[4] = molecular target: T4, human STING protein (140-379) (Homo sapiens, UniProt Q86WV6, H232R); assay: Radiometric filtration binding competition assay (WT_FBA_HIS-SUMO-hSWAT); settings: read-out: WT-hSWAT IC50
T4 construct: 6XHIS-SUMO-hSTING (140-379); made in house; host or cells: BL-21(DE3) E. coli, pET vector
Summary of the method: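 His-SUMO-tagged STING ligand-binding domain (human 140-379 or mouse 139-328, 0.5 μM) preincubated 30 min with compound (8 points, 2-fold from 300 μM), then competed with a tritiated ligand. Complexes were filtered and counted by scintillation. IC50 from non-linear regression, with Ki extrapolated.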

[5] = molecular target: T5, mSTING-R232 (aa139-378) (Mus musculus, UniProt Q3TBT3); assay: STING Differential Scanning Fluorimetry (DSF) assay, mouse; type: binding; settings: 5 μM protein
T5 construct: mSTING-R232 (aa139-378); 6xHis-SUMO; made in house
T5 sequence (Q3TBT3 139-378): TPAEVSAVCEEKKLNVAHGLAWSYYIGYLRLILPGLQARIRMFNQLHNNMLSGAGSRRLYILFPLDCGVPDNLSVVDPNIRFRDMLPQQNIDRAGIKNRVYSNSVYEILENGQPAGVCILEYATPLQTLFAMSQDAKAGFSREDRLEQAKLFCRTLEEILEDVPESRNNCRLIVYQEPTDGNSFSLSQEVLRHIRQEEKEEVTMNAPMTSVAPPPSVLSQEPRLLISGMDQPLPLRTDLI
Experimental: A STING DSF assay was performed to determine protein thermostability shift in response to small molecule ligand binding. A STING thermostability shift assay based on differential scanning fluorimetry was used to measure (1) the net shift in melting temperature (ΔTm)between the apo and ligand-bound states of the STING protein and (2) the concentration of the thermal denaturation transition (FC50) as a surrogate measure of binding affinity (Kd). Briefly, recombinant mouse or human STING protein (aa140-379) comprising the C-terminal binding domain (R232-WT) were purified by affinity chromatography and further processed to remove the purification tag, followed by gel filtration to achieve purity >95%. Protein in assay buffer was transferred to a 384 well plate and incubated with the hydrophobic fluorescent dye SYBR Orange. A temperature ramp was applied to the plate and the resulting dye fluorescence was plotted as a function of temperature. The first derivative of this function (dF/dT) was then used to extrapolate the melting temperature of the protein at various concentrations of compound and determine the thermal denaturation profile of a protein/compound complex.
2. 5 μM purified Target STING Protein
4. Buffer: 100 mM NaCl, 30 mM HEPES, pH 7.5
5. Thermal Ramp: 0.5° C./min
7. 11 point, 2 fold dilution, duplicate, 300 μM high concentrations

T3 sequence (Q86WV6 140-379 H232R): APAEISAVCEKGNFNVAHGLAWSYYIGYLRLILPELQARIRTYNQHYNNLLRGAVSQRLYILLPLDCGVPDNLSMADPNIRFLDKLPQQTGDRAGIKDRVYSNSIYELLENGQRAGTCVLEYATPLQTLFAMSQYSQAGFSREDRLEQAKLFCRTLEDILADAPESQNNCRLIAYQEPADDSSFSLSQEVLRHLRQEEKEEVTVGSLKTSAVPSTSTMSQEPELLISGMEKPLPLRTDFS
T4 sequence (Q86WV6 140-379 H232R): as above
T2 sequence (Q86WV6 whole entry H232R): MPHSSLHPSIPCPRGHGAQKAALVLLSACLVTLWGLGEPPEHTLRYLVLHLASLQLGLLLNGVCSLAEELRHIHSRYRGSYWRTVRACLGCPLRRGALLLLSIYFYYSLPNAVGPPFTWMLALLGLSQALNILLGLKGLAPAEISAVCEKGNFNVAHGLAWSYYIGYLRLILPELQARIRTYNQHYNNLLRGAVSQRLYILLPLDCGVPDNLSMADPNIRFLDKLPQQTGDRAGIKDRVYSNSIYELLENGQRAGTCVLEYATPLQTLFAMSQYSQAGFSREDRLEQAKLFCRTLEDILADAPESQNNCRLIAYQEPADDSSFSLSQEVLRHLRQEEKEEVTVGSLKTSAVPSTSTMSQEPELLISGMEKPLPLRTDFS

| Structure (SMILES) | pIC50 [1] | Emax [2] | WT_DSF_hSWAT Tm Shift (° C.) [3] | pIC50 [4] | MOUSE DSF_6xHIS-SUMO Tm Shift (° C.) [5] |
| --- | --- | --- | --- | --- | --- |
| CCOc1c(Cl)ccc2c(=O)c3ccc(C(C)C)nc3n(CC(=O)O)c12 [Compound 3] | 4.00 to 4.70 | > 50% | D (“D” > 7° C.) | 4.00 to 4.70 | C (“C” = 5-15° C.) |
| COCCN(C)c1nc2c(cc1Cl)c(=O)c1ccc(Cl)c(SC)c1n2CC(=O)O [Compound 75, sodium 2-(3,8-dichloro-2-((2-methoxyethyl)(methyl)amino)-9-(methylthio)-5-oxobenzo[b][1,8]naphthyridin-10(5H)-yl)acetate] | – | > 50% | D (“D” > 7° C.) | 4.00 to 4.70 | – |
| CCOc1c(Cl)ccc2c(=O)c3ccc(C)nc3n(CC(=O)O)c12 [Compound 2] | 3.52 to 4.00 | > 50% | C (“C” = 2-7° C.) | 3.52 to 4.00 | C (“C” = 5-15° C.) |
| CSc1c(Cl)ccc2c(=O)c3ccc(N(CC4CC4)C4CC(F)(F)C4)nc3n(CC(=O)O)c12 [Compound 42, sodium 2-(8-chloro-2-((cyclopropylmethyl)(3,3-difluorocyclobutyl)amino)-9-(methylthio)-5-oxobenzo[b][1,8]naphthyridin-10(5H)-yl)acetate] | – | > 50% | D (“D” > 7° C.) | 4.00 to 4.70 | – |
